Measured values taken from patent US5034512A, “Branched backbone renin inhibitors” (Warner-Lambert Company, priority 1988, dated 1991).

target: T1, renin (Homo sapiens, UniProt P00797); assay: in vitro renin inhibitory activity, radioimmunoassay for angiotensin I; assay type: biochemical; conditions: 10^-6 M test compound; renin incubated two hours at 37° with angiotensinogen
T1 sequence (P00797 67-406): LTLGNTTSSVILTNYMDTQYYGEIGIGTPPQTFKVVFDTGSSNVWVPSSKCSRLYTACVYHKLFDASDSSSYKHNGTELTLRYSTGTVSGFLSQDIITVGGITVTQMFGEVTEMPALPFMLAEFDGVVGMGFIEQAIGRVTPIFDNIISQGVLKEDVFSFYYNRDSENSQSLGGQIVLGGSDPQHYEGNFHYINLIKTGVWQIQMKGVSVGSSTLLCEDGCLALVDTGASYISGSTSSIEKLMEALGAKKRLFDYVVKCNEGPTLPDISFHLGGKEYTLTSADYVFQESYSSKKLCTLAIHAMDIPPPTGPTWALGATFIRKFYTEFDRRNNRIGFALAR
Method: The effectiveness of the aforementioned compound is determined by a test for in vitro renin inhibitory activity. This activity is determined by a standard radioimmunoassay for angiotensin I. In this assay the enzyme, renin, incubated for two hours at 37° in the presence of a substrate, angiotensinogen, generates the product, angiotensin I. Test compounds are added to the incubation mixture. Relative activity is reported as the IC50, which is the molar concentration of test compound causing a 50% inhibition of the renin activity. Relative activity is also reported as % inhibition at 10^-6 M,

SMILES	inhibition at 1 µM [%]
CNC(=O)CCNC(=O)C[C@H](NC(=O)C(Cc1cccc2ccccc12)Cc1cccc2ccccc12)C(=O)N[C@@H](CC1CCCCC1)[C@@H](O)CC(=O)N[C@@H](CC(C)C)C(=O)NCc1ccccc1 [Example 6]	47

same assay, conditions: renin incubated two hours at 37° with angiotensinogen; read-out: IC50 (molar concentration of test compound causing a 50% inhibition of the renin activity)

SMILES	IC50 [nM]
COC(=O)[C@H](CCS(C)(=O)=O)NC(=O)C[C@H](NC(=O)C(Cc1cccc2ccccc12)Cc1cccc2ccccc12)C(=O)N[C@@H](CC1CCCCC1)[C@@H](O)CC(=O)N[C@@H](CC(C)C)C(=O)NCc1ccccc1 [Example 3]	3500
CC[C@H](C)CNC(=O)C[C@H](O)[C@H](CC(C)C)NC(=O)[C@H](CCCCNC(=O)[C@@H]1CSCN1C(C)=O)NC(=O)C(Cc1cccc2ccccc12)Cc1cccc2ccccc12 [Example 13]	1100
CC[C@H](C)CNC(=O)C[C@H](O)[C@H](CC(C)C)NC(=O)[C@H](CCCCNC(=O)CNC(=NC#N)NC)NC(=O)C(Cc1cccc2ccccc12)Cc1cccc2ccccc12 [Example 20]	30
CC[C@H](C)CNC(=O)C[C@H](O)[C@H](CC(C)C)NC(=O)[C@H](CCCCNC(=O)CCNC(C)=O)NC(=O)C(Cc1cccc2ccccc12)Cc1cccc2ccccc12 [Example 16]	25
CC[C@H](C)CNC(=O)C[C@H](O)[C@H](CC(C)C)NC(=O)[C@H](CCCCNC(=O)[C@@H]1CS(=O)(=O)CN1C(C)=O)NC(=O)C(Cc1cccc2ccccc12)Cc1cccc2ccccc12 [Example 14]	470
CC[C@H](C)CNC(=O)C[C@H](O)[C@H](CC(C)C)NC(=O)[C@H](CCCCNC(=O)CNC(=O)OCc1ccccc1)NC(=O)C(Cc1cccc2ccccc12)Cc1cccc2ccccc12 [Example 8]	83
CNC(=S)CNC(=O)C[C@H](NC(=O)C(Cc1cccc2ccccc12)Cc1cccc2ccccc12)C(=O)N[C@@H](CC1CCCCC1)[C@@H](O)CC(=O)N[C@@H](CC(C)C)C(=O)NCc1ccccc1 [Example 5]	240
CC[C@H](C)CNC(=O)C[C@H](O)[C@H](CC(C)C)NC(=O)[C@H](CCCCNC(=O)CNC(=O)C(C)C)NC(=O)C(Cc1cccc2ccccc12)Cc1cccc2ccccc12 [Example 17]	74
CC[C@H](C)CNC(=O)C[C@H](O)[C@H](CC(C)C)NC(=O)[C@H](CCCCNC(=O)CN)NC(=O)C(Cc1cccc2ccccc12)Cc1cccc2ccccc12 [Example 9]	710
CC[C@H](C)CNC(=O)C[C@H](O)[C@H](CC(C)C)NC(=O)[C@H](CCC(=O)NCC(=S)NC)NC(=O)C(Cc1cccc2ccccc12)Cc1cccc2ccccc12 [Example 1]	9000
CC[C@H](C)CNC(=O)C[C@H](O)[C@H](CC(C)C)NC(=O)[C@H](CCCCNC(=O)[C@@H]1CCC(=O)N1)NC(=O)C(Cc1cccc2ccccc12)Cc1cccc2ccccc12 [Example 15]	43
CC[C@H](C)CNC(=O)C[C@H](O)[C@H](CC1CCCCC1)NC(=O)[C@H](CCCCNC(=O)CNC(C)=O)NC(=O)C(Cc1cccc2ccccc12)Cc1cccc2ccccc12 [Example 12]	27
CC[C@H](C)CNC(=O)C[C@H](O)[C@H](CC(C)C)NC(=O)[C@H](CCCCNC(=O)CNC(N)=N[N+](=O)[O-])NC(=O)C(Cc1cccc2ccccc12)Cc1cccc2ccccc12 [Example 19]	8
CC[C@H](C)CNC(=O)C[C@H](O)[C@H](CC(C)C)NC(=O)[C@H](CCCCNC(=O)CNC(=S)NC)NC(=O)C(Cc1cccc2ccccc12)Cc1cccc2ccccc12 [Example 10]	80
CC[C@H](C)CNC(=O)C[C@H](O)[C@H](CC(C)C)NC(=O)[C@H](CCC(=O)NCC(=O)NC)NC(=O)C(Cc1cccc2ccccc12)Cc1cccc2ccccc12 [Example 2]	15000
CC[C@H](C)CNC(=O)C[C@H](O)[C@H](CC(C)C)NC(=O)[C@H](CCCCNC(=O)CNC(=O)C(F)F)NC(=O)C(Cc1cccc2ccccc12)Cc1cccc2ccccc12 [Example 18]	62
